# Patent publication US7960427B2, “5-hydroxyindole-3-carboxylate derivatives and uses thereof” (priority 2004, dated 2011)
# Structures can show the parent of a compound that is named as a salt. Where two headings read alike, the source gives them in different places.
# Legend:
# [1] = test system: Madin-Darby canine kidney (MDCK) cells
# [2] = test system: influenza A virus, strain A/jifang/90-15; test: microbe, parasite or virus in culture; type: cell-based; conditions: for IC50: Influenza strain A/jifang/90-15, MDCK cells, CPE, Reed-Muench; for SI: Influenza strain A/jifang/90-15
# HBV DNA = test: In vitro anti-HBV activity: replication of HBV DNA in 2.2.15 cells (dot hybridization); type: cell-based, Hepatitis B virus (HBV); conditions: for IC50: Hepatitis B virus, read-out: DNA replication IC50; for DNA replication SI: selectivity index
# Description: (§1) All compounds were evaluated for their anti-HBV activities, namely the ability to inhibit the replication of HBV DNA and the production of HBsAg and HBeAg in HBV-infected 2.2.15 cells.
# (§2) The samples were dissolved in DMSO for appropriate concentrations, and then each was diluted 3-fold with culture medium. The 2.2.15 cells were planted into 96-well culture plates. […] The culture supernatants and 2.2.15 cells were collected respectively on the 8th plant day. The secretion concentrations of HBsAg and HBeAg in the culture supernatants were measured by RIA on SPRIA Kit for Detection of HBsAg and HBeAg (Beijing North Institute of Biological Technology), and the replication of HBV DNA was measured by dot hybridization with a^32PdCTP (FuRui Biological Technology Ltd., China).
# 2.2.15 cells = test: Cytotoxicity (TC50) in 2.2.15 cells; type: cell-based
# Description: as §1, §2
# HBsAg = test: In vitro anti-HBV activity: HBsAg production in HBV-infected 2.2.15 cells (RIA); type: cell-based, Hepatitis B virus (HBV); conditions: for IC50: Hepatitis B virus, read-out: HBsAg IC50; for HBsAg SI: selectivity index
# Description: as §1, §2
# HIV-1 protease = target: T1, HIV-1 protease (Human immunodeficiency virus type 1 group M subtype B, UniProt P04585); test: Anti-HIV-1 protease activity (fluorescence labeled substrate); type: biochemical; conditions: for inhibition ratio at 0.5 ug/ml: sample concentration 0.5 ug/ml; for inhibition ratio at 2.0 ug/ml: sample concentration 2.0 ug/ml; for inhibition ratio at 10 ug/ml: sample concentration 10 ug/ml; for inhibition ratio at 50 ug/ml: sample concentration 50 ug/ml; for inhibition ratio at 250 ug/ml: sample concentration 250 ug/ml
# T1 construct: The genetically engineered target enzyme (HIV-1 protease, preserved at −85° C.)
# Description: HIV-1 protease can cut the fluorescence labeled substrate under optimal condition and reaction system, so the activity of enzyme is determined by the fluorescence in the product of enzymatic reaction. The samples are added into the reaction system to observe the inhibitive effect on the enzyme.
# The samples and the reference drug Indinavir ([…].) were dissolved in DMSO or redistilled water for appropriate concentration. Each was diluted 5-fold and then added into the buffer containing fluorescence labeled substrate (MP Co.). The genetically engineered target enzyme (HIV-1 protease, preserved at −85° C.) was added to the buffer and incubated under the optimal reaction condition. The fluorescence was determined by FLUO star Galaxy fluorometer.
# [3] = Influenza A virus, read-out: IC50
SMILES,IC50 (HBV DNA),DNA replication SI (HBV DNA),TC50 (2.2.15 cells),IC50 (HBsAg),HBsAg SI (HBsAg),other results
"CCOC(=O)c1c(CSc2ccccc2)n(C)c2cc(Br)c(O)c(CN(C)C)c12.Cl.O [Abidol, Ethyl 6-bromo-4-[(dimethylamino)methyl]-5-hydroxy-1-methyl-2-(phenyl-thiomethyl)-1H-indole-3-carboxylate hydrochloride monohydrate, reference compound]",,,,,,"TC50 [1]: 62.5 µg/mL; IC50 [2, 3]: 23.2 µg/mL; SI [2]: 2.69"
"CCOC(=O)c1c(CSc2nc3ccccc3[nH]2)n(C)c2cc(Br)c(O)c(CN(C)C)c12 [Example 3, Ethyl 6-bromo-4-[(dimethylamino)methyl]-5-hydroxy-1-methyl-2-[(benzo[d]imidazol-2-yl)thiomethyl]-1H-indole-3-carboxylate]",,,,,,"TC50 [1]: 12.4 µg/mL; IC50 [2, 3]: 7.81 µg/mL; SI [2]: 1.59"
"CCOC(=O)c1c(CSCc2ccc(F)cc2)n(C)c2cc(Br)c(O)c(CN(C)C)c12.Cl [Example 5, Ethyl 6-bromo-4-[(dimethylamino)methyl]-5-hydroxy-1-methyl-2-[(4-fluorobenzyl)thiomethyl]-1H-indole-3-carboxylate hydrochloride]",,,,,,"TC50 [1]: 49.51 µg/mL; IC50 [2, 3]: 7.81 µg/mL; SI [2]: 6.34"
"CCOC(=O)c1c(CSCc2ccccc2F)n(C2CC2)c2cc(Br)c(O)c(CN3CCCC3)c12.Cl [Example 14, Ethyl 6-bromo-1-cyclopropyl-5-hydroxy-4-(1-pyrrolidinylmethyl)-2-[(2-fluorobenzyl)thiomethyl]-1H-indole-3-carboxylate hydrochloride]",,,,,,"TC50 [1]: 2.48 µg/mL; IC50 [2, 3]: 0.92 µg/mL; SI [2]: 2.7"
"CCOC(=O)c1c(CSc2nc3ccc(OC)cc3[nH]2)n(C)c2cc(Br)c(O)c(CN3CCOCC3)c12 [Example 25, Ethyl 6-bromo-5-hydroxy-1-methyl-4-(morpholinomethyl)-2-[(5-methoxybenzo[d]imidazol-2-yl)thiomethyl]-1H-indole-3-carboxylate]",,,,,,"TC50 [1]: 125.0 µg/mL; IC50 [2, 3]: 22.1 µg/mL; SI [2]: 5.66"
"CCOC(=O)c1c(C[S+]([O-])Cc2cscn2)n(C2CC2)c2cc(Br)c(O)c(CN(C)C)c12 (stereo not shown) [Example 52, Ethyl 6-bromo-1-cyclopropyl-4-[(dimethylamino)methyl]-5-hydroxy-2-[(4-thiazolylmethyl)sulfinylmethyl]-1H-indole-3-carboxylate dihydrochloride]",3.51 µg/mL,18.27,64.15 µg/mL,4.79 µg/mL,13.39,
"CCOC(=O)c1c(C[S+]([O-])Cc2ccco2)n(C)c2cc(Br)c(O)c(CN3CCCC3)c12 (stereo not shown) [Example 71, Ethyl 6-bromo-5-hydroxy-1-methyl-4-(1-pyrrolidinylmethyl)-2-[(2-furylmethyl)sulfinylmethyl]-1H-indole-3-carboxylate]",23.9 µg/mL,1.60,38.32 µg/mL,18.4 µg/mL,2.09,
"CCOC(=O)c1c(C[S+]([O-])c2ccc(C(F)(F)F)cc2)n(C2CC2)c2cc(Br)c(O)c(CN(C)C)c12 (stereo not shown) [Example 79, Ethyl 6-bromo-1-cyclopropyl-4-[(dimethylamino)methyl]-5-hydroxy-2-[(4-trifluoromethylphenyl)sulfinylmethyl]-1H-indole-3-carboxylate]",4.47 µg/mL,3.83,17.12 µg/mL,6.3 µg/mL,2.72,
"CCOC(=O)c1c(CS(=O)(=O)c2ccc(C(F)(F)F)cc2)n(C)c2cc(Br)c(O)c(CN3CCCC3)c12 [Example 82, Ethyl 6-bromo-5-hydroxy-1-methyl-4-(1-pyrrolidinylmethyl)-2-[(4-trifluoromethylphenyl)sulfonylmethyl]-1H-indole-3-carboxylate]",6.1 µg/mL,2.34,14.25 µg/mL,7.83 µg/mL,1.82,
"CCOC(=O)c1c(CS(=O)(=O)c2cccc(C(F)(F)F)c2)n(C2CC2)c2cc(Br)c(O)c(CN3CCCC3)c12 [Example 83, Ethyl 6-bromo-1-cyclopropyl-5-hydroxy-4-(1-pyrrolidinylmethyl)-2-[(3-trifluoromethylphenyl)sulfonylmethyl]-1H-indole-3-carboxylate]",6.38 µg/mL,5.58,35.61 µg/mL,18.3 µg/mL,1.94,
"CCOC(=O)c1c(CSc2nc3ccccc3[nH]2)n(C)c2cc(Br)c(O)c(Cn3ccnc3)c12.Cl [Example 94, Ethyl 6-bromo-5-hydroxy-4-[(1-imidazolyl)methyl]-1-methyl-2-[(benzo[d]imidazol-2-yl)thiomethyl]-1H-indole-3-carboxylate hydrochloride]",,,53.42 µg/mL,7.37 µg/mL,7.25,
"CCOC(=O)c1c(C[S+]([O-])c2ccc(F)cc2)n(C)c2cc(Br)c(O)c(Cn3ccnc3)c12 (stereo not shown) [Example 122, Ethyl 6-bromo-5-hydroxy-4-[(1-imidazolyl)methyl]-1-methyl-2-[(4-fluorophenyl)sulfinylmethyl]-1H-indole-3-carboxylate]",13.6 µg/mL,3.54,48.1 µg/mL,11.4 µg/mL,4.23,
"CCOC(=O)c1c(C[S+]([O-])c2ccc(F)cc2)n(C2CC2)c2cc(Br)c(O)c(Cn3ccnc3C)c12 (stereo not shown) [Example 138, Ethyl 6-bromo-1-cyclopropyl-5-hydroxy-4-[(2-methyl-1-imidazolyl)methyl]-2-[(4-fluorophenyl)sulfinylmethyl]-1H-indole-3-carboxylate]",5 µg/mL,3.74,18.52 µg/mL,,,IC50 (HIV-1 protease): 111 µM; inhibition ratio at 0.5 ug/ml (HIV-1 protease): 6.8; inhibition ratio at 2.0 ug/ml (HIV-1 protease): −2.3; inhibition ratio at 10 ug/ml (HIV-1 protease): 6.4; inhibition ratio at 50 ug/ml (HIV-1 protease): 12.7; inhibition ratio at 250 ug/ml (HIV-1 protease): 75.7
"CCOC(=O)c1c(C[S+]([O-])c2ccc(F)cc2)n(C)c2cc(Br)c(O)c(CNC(=N)N)c12 (stereo not shown) [Example 153, Ethyl 6-bromo-4-(guanidinylmethyl)-5-hydroxy-1-methyl-2-[(4-fluorophenyl)sulfinylmethyl]-1H-indole-3-carboxylate]",29.3 µg/mL,4.27,125 µg/mL,62.2 µg/mL,2.01,IC50 (HIV-1 protease): 133 µM; inhibition ratio at 0.5 ug/ml (HIV-1 protease): 7.2; inhibition ratio at 2.0 ug/ml (HIV-1 protease): 14.7; inhibition ratio at 10 ug/ml (HIV-1 protease): 11.2; inhibition ratio at 50 ug/ml (HIV-1 protease): 24.1; inhibition ratio at 250 ug/ml (HIV-1 protease): 75.3
"CCOC(=O)c1c(C[S+]([O-])c2ccc(F)cc2)n(C2CC2)c2cc(Br)c(O)c(CNC(=N)N)c12 (stereo not shown) [Example 154, Ethyl 6-bromo-1-cyclopropyl-4-(guanidinylmethyl)-5-hydroxy-2-[(4-fluorophenyl)sulfinylmethyl]-1H-indole-3-carboxylate]",5.2 µg/mL,3.63,18.52 µg/mL,,,IC50 (HIV-1 protease): 43.5 µM; inhibition ratio at 0.5 ug/ml (HIV-1 protease): 3.2; inhibition ratio at 2.0 ug/ml (HIV-1 protease): 13.2; inhibition ratio at 10 ug/ml (HIV-1 protease): 4.8; inhibition ratio at 50 ug/ml (HIV-1 protease): 19.8; inhibition ratio at 250 ug/ml (HIV-1 protease): 109.3
"CCOC(=O)c1c(CSc2cccc(F)c2)n(C)c2cc(Br)c(O)c(Cn3ccnc3)c12 [Example 175, Ethyl 6-bromo-5-hydroxy-4-[(1-imidazolyl)methyl]-1-methyl-2-[(3-fluorophenyl)thiomethyl]-1H-indole-3-carboxylate]",4.65 µg/mL,7.66,35.61 µg/mL,2.45 µg/mL,14.53,
"CCOC(=O)c1c(C[S+]([O-])c2ccc(C(F)(F)F)cc2)n(C)c2cc(Br)c(O)c(Cn3ccnc3)c12 (stereo not shown) [Example 177, Ethyl 6-bromo-5-hydroxy-4-[(1-imidazolyl)methyl]-1-methyl-2-[(4-trifluoromethylphenyl)sulfinylmethyl]-1H-indole-3-carboxylate]",15.9 µg/mL,6.72,106.83 µg/mL,31.5 µg/mL,3.39,
"CCOC(=O)c1c(CSc2nc3ccccc3[nH]2)n(C)c2cc(Br)c(O)c(Cn3ccnc3C)c12.Cl [Example 181, Ethyl 6-bromo-5-hydroxy-1-methyl-4-[(2-methyl-1-imidazolyl)methyl]-2-[(benzo[d]imidazol-2-yl)thiomethyl]-1H-indole-3-carboxylate hydrochloride]",,,21.38 µg/mL,1.55 µg/mL,13.79,
"NC(=O)c1ncn([C@@H]2O[C@H](CO)[C@@H](O)[C@H]2O)n1 [Ribovirin, reference compound]",,,,,,IC50 [2]: >33.81 µg/mL
